ED50, EC50 and Activity data for nine compounds are collected here from ChEMBL document CHEMBL1153765, “Bioactive 5,6-dihydro-alpha-pyrone derivatives from Hyptis brevipes” (2009).

The source made the active and inactive calls. No cut-off for these calls is given here. Some results are limits rather than exact numbers.

One assay has as its target T1, Nuclear factor NF-kappa-B p105 subunit (Homo sapiens) (UniProt P19838).
T1 sequence (whole entry): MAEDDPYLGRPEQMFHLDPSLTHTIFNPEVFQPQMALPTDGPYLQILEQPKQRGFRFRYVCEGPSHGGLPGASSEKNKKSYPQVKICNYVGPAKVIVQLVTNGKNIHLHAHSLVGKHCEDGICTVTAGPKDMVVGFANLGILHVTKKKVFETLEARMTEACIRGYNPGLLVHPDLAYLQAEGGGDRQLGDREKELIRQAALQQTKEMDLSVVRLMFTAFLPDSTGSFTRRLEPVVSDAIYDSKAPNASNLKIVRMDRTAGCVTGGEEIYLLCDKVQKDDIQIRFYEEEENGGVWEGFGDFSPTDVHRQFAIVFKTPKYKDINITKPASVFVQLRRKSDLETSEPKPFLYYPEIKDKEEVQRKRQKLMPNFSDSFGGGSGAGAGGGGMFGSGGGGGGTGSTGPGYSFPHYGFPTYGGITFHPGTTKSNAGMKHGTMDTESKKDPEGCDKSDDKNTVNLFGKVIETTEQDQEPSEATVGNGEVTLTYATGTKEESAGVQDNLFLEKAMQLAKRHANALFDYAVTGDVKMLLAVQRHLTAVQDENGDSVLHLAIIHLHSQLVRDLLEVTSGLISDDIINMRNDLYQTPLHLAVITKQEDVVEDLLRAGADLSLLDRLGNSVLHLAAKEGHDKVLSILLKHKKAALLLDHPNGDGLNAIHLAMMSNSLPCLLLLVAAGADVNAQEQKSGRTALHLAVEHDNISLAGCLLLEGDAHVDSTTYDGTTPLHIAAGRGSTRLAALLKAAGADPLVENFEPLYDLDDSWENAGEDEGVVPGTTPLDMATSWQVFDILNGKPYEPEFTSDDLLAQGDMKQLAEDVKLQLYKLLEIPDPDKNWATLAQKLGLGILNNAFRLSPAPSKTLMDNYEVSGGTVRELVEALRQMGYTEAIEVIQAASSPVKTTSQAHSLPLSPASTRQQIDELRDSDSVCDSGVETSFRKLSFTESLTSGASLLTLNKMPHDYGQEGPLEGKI
The assay can be described thus: Inhibition of NF kappaB p50 subunit signaling pathway in human HeLa cells by biotinylated-ELISA. The assay is classed as cell-based.
Conditions: not given
Background: In an ELISA, binding on a coated surface is turned into a signal by an enzyme label.
As to `CC(OC(=O)/C=C/c1ccc(O)cc1)C(=O)[C@H]1C[C@@H]1[C@H](O)[C@H]1CC=CC(=O)O1` (stereo not given in full), the ED50 was determined as 15.3 µM.

Turning to `COc1ccc(-c2oc3cc(OC)c(O)c(O)c3c(=O)c2OC)cc1O`, the ED50 is greater than 50 µM.

`COc1ccc([C@@]23Oc4cc(OC)cc(OC)c4[C@]2(O)[C@H](O)[C@H](C(=O)N(C)C)[C@H]3c2ccccc2)cc1` gave an ED50 of 2 µM.

In the case of `CC(=O)O[C@@H]([C@H]1C[C@@H]1C(=O)C(C)OC(=O)/C=C/c1ccc(O)cc1)[C@H]1CC=CC(=O)O1` (stereo not given in full) [BREVIPOLIDE A], the ED50 is greater than 50 µM.

In turn, `CC(=O)O[C@@H]([C@H]1C[C@@H]1C(=O)C(C)OC(=O)/C=C\c1ccc(O)cc1)[C@H]1CC=CC(=O)O1` (stereo not given in full) [BREVIPOLIDE B] gave an ED50 greater than 50 µM.

In turn, `CC(OC(=O)/C=C/c1ccc(O)c(O)c1)C(=O)[C@H]1C[C@@H]1[C@H](O)[C@H]1CC=CC(=O)O1` (stereo not given in full) [BREVIPOLIDE C] came in with an ED50 greater than 50 µM.

Take `CC(OC(=O)/C=C\c1ccc(O)c(O)c1)C(=O)[C@H]1C[C@@H]1[C@H](O)[C@H]1CC=CC(=O)O1` (stereo not given in full) [BREVIPOLIDE D]: the ED50 was greater than 50 µM.

`CC(=O)O[C@@H]([C@H]1C[C@@H]1C(=O)C(C)OC(=O)/C=C/c1ccc(O)c(O)c1)[C@H]1CC=CC(=O)O1` (stereo not given in full) [BREVIPOLIDE E]: the ED50 was greater than 50 µM.

Compound `CC(OC(=O)/C=C\c1ccc(O)cc1)C(=O)[C@H]1C[C@@H]1[C@H](O)[C@H]1CC=CC(=O)O1` (stereo not given in full) [BREVIPOLIDE F] came in with an ED50 greater than 50 µM.

The next assay concerns MCF7. Nature of the assay: Cytotoxicity against human MCF7 cells. The assay is classed as functional. The settings on record: read-out: ED50 (the source's name).
`CC(OC(=O)/C=C/c1ccc(O)cc1)C(=O)[C@H]1C[C@@H]1[C@H](O)[C@H]1CC=CC(=O)O1` (stereo not given in full): the EC50 was 3.6 µM.

As for `CC(=O)O[C@@H]([C@H]1C[C@@H]1C(=O)C(C)OC(=O)/C=C/c1ccc(O)cc1)[C@H]1CC=CC(=O)O1` (stereo not given in full) [BREVIPOLIDE A], the EC50 is greater than 10 µM.

As for `CC(=O)O[C@@H]([C@H]1C[C@@H]1C(=O)C(C)OC(=O)/C=C\c1ccc(O)cc1)[C@H]1CC=CC(=O)O1` (stereo not given in full) [BREVIPOLIDE B], the EC50 came to 6.1 µM.

With `CC(OC(=O)/C=C/c1ccc(O)c(O)c1)C(=O)[C@H]1C[C@@H]1[C@H](O)[C@H]1CC=CC(=O)O1` (stereo not given in full) [BREVIPOLIDE C], the EC50 was greater than 10 µM.

`CC(OC(=O)/C=C\c1ccc(O)c(O)c1)C(=O)[C@H]1C[C@@H]1[C@H](O)[C@H]1CC=CC(=O)O1` (stereo not given in full) [BREVIPOLIDE D]: the EC50 was greater than 10 µM.

For `CC(=O)O[C@@H]([C@H]1C[C@@H]1C(=O)C(C)OC(=O)/C=C/c1ccc(O)c(O)c1)[C@H]1CC=CC(=O)O1` (stereo not given in full) [BREVIPOLIDE E], the EC50 is greater than 10 µM.

Take `CC(OC(=O)/C=C\c1ccc(O)cc1)C(=O)[C@H]1C[C@@H]1[C@H](O)[C@H]1CC=CC(=O)O1` (stereo not given in full) [BREVIPOLIDE F]: the EC50 is 6.7 µM.

The next assay has as its system HT-29. The assay can be described thus: Induction of apoptosis in human HT-29 cells assessed as change in mitochondrial transmembrane potential after 2 hrs by JC1 staining based fluorescence assay. As to conditions: HT-29, 2 h, read-out: ED50 (the source's name). The assay is classed as functional.
In the case of `CC(OC(=O)/C=C/c1ccc(O)cc1)C(=O)[C@H]1C[C@@H]1[C@H](O)[C@H]1CC=CC(=O)O1` (stereo not given in full), the EC50 was 0.075 µM.

Another assay concerns HL-60. The assay can be described thus: Inhibition of chymotrypsin-like activity of proteasome in human HL60 cells assessed as free AMC level after 10 mins. The assay is classed as subcellular.
Conditions: not given
With `COc1ccc(-c2oc3cc(OC)c(O)c(O)c3c(=O)c2OC)cc1O`, the ED50 turned out to be 17 µM.

For `CC(OC(=O)/C=C/c1ccc(O)c(O)c1)C(=O)[C@H]1C[C@@H]1[C@H](O)[C@H]1CC=CC(=O)O1` (stereo not given in full) [BREVIPOLIDE C], the ED50 was found to be 38 µM.

Regarding `CC(OC(=O)/C=C\c1ccc(O)c(O)c1)C(=O)[C@H]1C[C@@H]1[C@H](O)[C@H]1CC=CC(=O)O1` (stereo not given in full) [BREVIPOLIDE D], the ED50 was 44.5 µM.

Another assay deals with HT-29. The assay can be described thus: Cytotoxicity against human HT-29 cells. The assay is classed as functional. As to conditions: read-out: ED50 (the source's name).
With `CC(=O)O[C@@H]([C@H]1C[C@@H]1C(=O)C(C)OC(=O)/C=C/c1ccc(O)cc1)[C@H]1CC=CC(=O)O1` (stereo not given in full) [BREVIPOLIDE A], the EC50 worked out at 5.8 µM.

For the compound `CC(=O)O[C@@H]([C@H]1C[C@@H]1C(=O)C(C)OC(=O)/C=C\c1ccc(O)cc1)[C@H]1CC=CC(=O)O1` (stereo not given in full) [BREVIPOLIDE B], the EC50 is 6.1 µM.

For another assay, the system named is Lu1. Nature of the assay: Cytotoxicity against human Lu1 cells. The assay is classed as functional, cell-based.
Conditions: not given
In the case of `CC(OC(=O)/C=C/c1ccc(O)cc1)C(=O)[C@H]1C[C@@H]1[C@H](O)[C@H]1CC=CC(=O)O1` (stereo not given in full), the result was inactive.

With `COc1ccc(-c2oc3cc(OC)c(O)c(O)c3c(=O)c2OC)cc1O`, the outcome was inactive.

In the case of `CC(=O)O[C@@H]([C@H]1C[C@@H]1C(=O)C(C)OC(=O)/C=C/c1ccc(O)cc1)[C@H]1CC=CC(=O)O1` (stereo not given in full) [BREVIPOLIDE A], the outcome was inactive.

As for `CC(=O)O[C@@H]([C@H]1C[C@@H]1C(=O)C(C)OC(=O)/C=C\c1ccc(O)cc1)[C@H]1CC=CC(=O)O1` (stereo not given in full) [BREVIPOLIDE B], the outcome was inactive.

In the case of `CC(OC(=O)/C=C/c1ccc(O)c(O)c1)C(=O)[C@H]1C[C@@H]1[C@H](O)[C@H]1CC=CC(=O)O1` (stereo not given in full) [BREVIPOLIDE C], the result was inactive.

With `CC(OC(=O)/C=C\c1ccc(O)c(O)c1)C(=O)[C@H]1C[C@@H]1[C@H](O)[C@H]1CC=CC(=O)O1` (stereo not given in full) [BREVIPOLIDE D], the outcome was inactive.

With `CC(=O)O[C@@H]([C@H]1C[C@@H]1C(=O)C(C)OC(=O)/C=C/c1ccc(O)c(O)c1)[C@H]1CC=CC(=O)O1` (stereo not given in full) [BREVIPOLIDE E], the outcome was inactive.

`CC(OC(=O)/C=C\c1ccc(O)cc1)C(=O)[C@H]1C[C@@H]1[C@H](O)[C@H]1CC=CC(=O)O1` (stereo not given in full) [BREVIPOLIDE F]: the outcome was inactive.
